The structures appear in SMILES notation.

One assay has as its target T1, HMG--CoA reductase (Rattus norvegicus, UniProt P51639).
T1 construct: the microsomal fraction is isolated by differential ultracentrifugation to obtain HMG--CoA reductase enzyme; from tissue; host or cells: rat liver, microsomal fraction
T1 sequence (P51639 1-887): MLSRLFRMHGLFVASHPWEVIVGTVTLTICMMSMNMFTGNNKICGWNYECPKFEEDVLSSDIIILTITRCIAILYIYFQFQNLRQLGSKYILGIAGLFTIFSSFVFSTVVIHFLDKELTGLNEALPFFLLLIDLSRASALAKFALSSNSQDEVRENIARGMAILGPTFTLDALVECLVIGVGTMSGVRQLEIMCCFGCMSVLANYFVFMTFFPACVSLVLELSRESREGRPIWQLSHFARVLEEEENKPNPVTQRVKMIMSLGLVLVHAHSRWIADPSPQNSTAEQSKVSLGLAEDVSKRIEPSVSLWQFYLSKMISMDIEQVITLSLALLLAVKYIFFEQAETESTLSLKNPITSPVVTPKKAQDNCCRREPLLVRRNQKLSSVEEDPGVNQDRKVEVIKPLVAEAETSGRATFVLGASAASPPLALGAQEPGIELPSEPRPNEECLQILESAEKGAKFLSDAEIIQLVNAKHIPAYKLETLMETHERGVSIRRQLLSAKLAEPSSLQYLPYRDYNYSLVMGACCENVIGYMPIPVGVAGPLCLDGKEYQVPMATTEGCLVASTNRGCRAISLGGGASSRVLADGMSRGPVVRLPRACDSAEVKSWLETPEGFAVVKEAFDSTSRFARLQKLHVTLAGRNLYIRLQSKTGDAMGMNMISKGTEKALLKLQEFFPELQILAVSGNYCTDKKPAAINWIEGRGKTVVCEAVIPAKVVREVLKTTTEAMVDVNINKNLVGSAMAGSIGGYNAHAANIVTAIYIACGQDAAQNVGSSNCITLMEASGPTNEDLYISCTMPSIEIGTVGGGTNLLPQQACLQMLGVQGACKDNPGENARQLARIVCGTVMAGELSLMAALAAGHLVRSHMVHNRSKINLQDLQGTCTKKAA
As to the kind of experiment: Inhibition of HMG-CoA reductase (microsomal enzyme from rat liver, [14C] HMG-CoA reduction to mevalonolactone). In kind it is biochemical. Particulars: rat liver microsomal fraction; compound tested as the dihydroxy sodium carboxylate, 10^-3 to 10^-6 M; 20 minute incubation at 37° C. The source says:
The HMG--CoA reductase inhibitory properties of representative compounds of this invention were established by subjecting the compounds to the following standard experimental test procedure adapted from Rodwell et al., Adv. Lipid Res. 14 1, 1976; Endo et al., FEBS Letters 72 323, 1976; and Tanzawa et al., Biochemia et Biophysica Acta 488 97, 1977.
Rat livers obtained from rats fed on a diet containing 3% cholestyramine and maintained on a reverse lighting regimen for three weeks are homogenized and the microsomal fraction is isolated by differential ultracentrifugation to obtain HMG--CoA reductase enzyme. To a preincubated (five minutes at 37° C.) solution of the compound being tested (as the dihydroxy sodium carboxylate in amounts from 10^-3 to 10^-6 M) in TEDKS100 pH (Tris®40 mM; EDTA 1 mM; dithiothreitol 5 mM; KCl 70 mM; sucrose 100 mM), 7.5 buffer or DMSO dissolved in an assay medium containing 20 μl of 2.5M KCl; 20 μl NADPH (reduced nicotinamide adenine dinucleotide phosphate) (7.5 mM); and 40 μl of labeled (RS) HMG--CoA (3--^14 C; […]; 200 μM) is added 10 μl of preincubated (five minutes at 37° C.) microsomal fraction to obtain a total volume of 125 μl. After a twenty minute incubation period at 37° C., reaction of the enzyme is terminated by addition of 10 μl of 70% HClO4. The assay tubes are then centrifuged for two minutes in a Beckman microfuge II.
To 100 μl of the supernatant liquid is added 10 μl of non-radioactivemevalonic acid lactone (0.25M in 8 mM H2 SO4). An aliquot of the sample is eluted with 8 mM H2 SO4 through Bio Rad Aminex HPX-87H (HPLC; Hewlett-Packard Model 1084B) at a flow rate of 1 mL/minute. The effluent is fractionated, Hydrofluor® is added and radioactivity of the [^14 C] mevalonolactone produced by reduction of [^14 C] HMG--CoA determined with a scintillation counter.
The percent inhibition of HMG--CoA reductase activity is obtained by comparison with a control assay devoid of the test compound. The inhibitory concentration (IC50) is calculated for the various test compounds.
(Liver microsomes are vesicles of endoplasmic reticulum, rich in cytochrome P450 enzymes.)
For orientation: IC50 means the concentration at which inhibition is half-maximal. A high value points to a need for much substance. Take `COC(=O)C[C@@H](O)C[C@H](O)/C=C/c1oc(C)cc1-c1ccc(F)cc1` [Example 1, (3S,5S,E)-7-[5-Methyl-3-(4-Fluorophenyl)-2-Furanyl]-3,5-Dihydroxy-6-Heptenoic Acid Methyl Ester]: the concentration for half-maximal inhibition (IC50) came to 62 µM.
Still for that read-out and setting: under `COC(=O)C[C@@H](O)C[C@H](O)/C=C/c1oc(C)cc1-c1ccccc1` [Example 2, (3S,5S,E)-7-[5-Methyl-3-Phenyl-2-Furanyl]-3,5-Dihydroxy-6-Heptenoic Acid Methyl Ester] stands 99 µM.
Molecule `COC(=O)C[C@@H](O)C[C@H](O)/C=C/c1occc1-c1ccc(F)cc1` [Example 3, (3S,5S,E)-7-[3-(4-Fluorophenyl)-2-Furanyl]-3,5-Dihydroxy-6-Heptenoic Acid Methyl Ester] gave a half-inhibitory concentration (IC50) of 56 µM.
Still for that read-out and setting: under `COC(=O)C[C@@H](O)C[C@H](O)/C=C/c1ccc(-c2ccc(C(F)(F)F)cc2[N+](=O)[O-])o1` [Example 4, (3S,5S,E)-3,5-Dihydroxy-7-[5-[4-(Trifluoromethyl)-2-Nitrophenyl]-2-Furanyl]-6-Heptenoic Acid Methyl Ester] stands 100 µM.

Another assay concerns biosynthesis of cholesterol.
Test: not given
Particulars: background art; cited from earlier work.
Take `CC[C@H](C)C(=O)O[C@H]1CCC=C2C=C[C@H](C)[C@H](CC[C@@H]3C[C@@H](O)CC(=O)O3)[C@H]21` [compactin]: the “inhibition of the biosynthesis of cholesterol (in words)” value is “inhibited”.
In the case of `CCC(C)C(=O)OC1CC(C)C=C2C=CC(C)C(CCC3CC(O)CC(=O)O3)C21` (stereo not drawn) [mevinolin], the “inhibition of the biosynthesis of cholesterol (in words)” value is “more effectively”.
